Read-outs that look alike come from different tables or passages of the source.
How the values were obtained:
[1] = target: HCV NS3/4A protease A156T mutant (Hepatitis C virus genotype 1b, UniProt P26663, A1182T); test: HCV NS3/4A protease time-resolved fluorescence (TRF) assay, Ki against A156T mutant; format: biochemical; details: read-out: IC50 [gt-1b A156T]
Procedure: (§1) Measuring NS3/4A Inhibitory Activity (Ki) Against Genotype 1b, Against A156T Mutants and Against Genotype 3a
(§2) One assay for measuring inhibitory activity is HCV NS3 protease time-resolved fluorescence (TRF) assay as described below and in Mao et al., Anal. Biochem. 373:1-8, 2008 and International Patent Application Publication WO 2006/102087. A NS3 protease assay can be performed, for example, in a final volume of 20 μl assay buffer containing 50 mM HEPES, pH 7.5, 150 mM NaCl, 15% glycerol, 0.15% TRITON X-100, 10 mM DTT, and 0.1% PEG 8000. NS3 and NS4A protease is pre-incubated with various concentrations of inhibitors in DMSO for 30 min. The reaction is initiated by adding the TRF peptide substrate (final concentration 25 nM). NS3 mediated hydrolysis of the substrate was run for 2.5 hours at room temperature. Product fluorescence is detected using A Pherastar Plus plate reader (BMG) or Envision (Perkin Elmer Life and Analytical Sciences with excitation at 340 nm and emission at 615 nm using the appropriate delay time optimized for the europium fluorescence probe. Testing concentrations of different enzyme forms are selected to result in a signal to background ratio (S/B) of 10-30. IC50 values are derived using a standard four-parameter fit to the data. Ki values are derived from IC50 values using the following formula, IC50=Ki(1+[S]/KM), Eqn (1), where [S] is the concentration of substrate peptide in the reaction and KM is the Michaelis constant. See P. Gallinari et al., 38 BIOCHEM. 5620-32 (1999); P. Gallinari et al., 72 J. VIROL. 6758-69 (1998); M. Taliani et al., 240 ANAL. BIOCHEM. 60-67 (1996); Mao et al., Analytical Biochemistry 373: 1-8, 2008.
(§3) The assay described above was run against genotype 1b at a concentration of 0.2 nM, against A156T mutant strains at a concentration of 0.4 nM, and against genotype 3a at a concentration of 0.025 nM.

[2] = target: HCV NS3/4A protease genotype 1b (Hepatitis C virus genotype 1b, UniProt P26663); test: HCV NS3/4A protease time-resolved fluorescence (TRF) assay, Ki against genotype 1b; format: biochemical
In short: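 Enzyme 0.2 nM 1b / 0.4 nM A156T / 0.025 nM 3a; 30 min preinc. w/ cpd; 25 nM TRF peptide; 2.5 h RT; ex 340/em 615 time-delayed; 4-param IC50 → Ki = IC50/(1+[S]/KM).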

[3] = target: HCV NS3/4A protease genotype 3a (Hepatitis C virus genotype 3a, UniProt Q81495); test: HCV NS3/4A protease time-resolved fluorescence (TRF) assay, Ki against genotype 3a; format: biochemical
Procedure: as §1, §2, §3

[4] = system: HCV genotype 1b replicon; test: HCV replicon assay, genotype 1b replicon EC50; format: cell-based, Hepatitis C virus; details: Hepatitis C virus, read-out: EC50 [gt-1b]
In short: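 Compound dilution series incubated 24-48 h, G418 absent, with HCV genotype 1b replicon cell lines kept under G418 selection beforehand. Luciferase signal or replicon RNA, by ^32P hybridization/protection or TaqMan normalized to cyclophilin A, was measured after washing and lysis. Four-parameter fitting against DMSO control gave EC50.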

[5] = NS3/4A protease TRF assay, A156T mutant enzyme 0.4 nM, K+ salt
[6] = IC50 [gt-1b], NS3/4A protease TRF assay, genotype 1b enzyme 0.2 nM, K+ salt
[7] = HCV replicon, genotype 1b, K+ salt
[8] = NS3/4A protease TRF assay, A156T mutant enzyme 0.4 nM
[9] = IC50 [gt-1b], NS3/4A protease TRF assay, genotype 1b enzyme 0.2 nM

Structure (SMILES) | IC50 [1, 5] [nM] | IC50 [2, 6] [nM] | IC50 [3] [nM] | EC50 [4, 7] [nM] | IC50 [1, 8] [nM] | IC50 [2, 9] [nM] | EC50 ([4]; HCV replicon, genotype 1b) [nM] | other results
COc1ccc2nc(C(F)(F)F)c3c(c2c1)CC[C@]1(C[C@H]2C(=O)N[C@]4(C(=O)NS(=O)(=O)C5(C)CC5)C[C@H]4/C=C\CCCCC[C@H](NC(=O)OC4CCOC4)C(=O)N2C1)O3 (stereo partly drawn) [Example 481, tetrahydrofuran-3-yl [(2R,6S,12Z,13aS,14aR,16aS)-9′-methoxy-14a-{[(1-methylcyclopropyl)sulfonyl]carbamoyl}-5,16-dioxo-5′-(trifluoromethyl)-1,1′,2′,5,6,7,8,9,10,11,13a,14,14a,15,16,16a-hexadecahydrospiro[cyclopropa[e]pyrrolo[1,2-a][1,4]diazacyclopentadecine-2,3′-pyrano[2,3-c]quinolin]-6-yl]carbamate] | 0.436 | 0.006 | 0.225 | 1.31 | – | – | – | –
COc1ccc2nc(C)c3c(c2c1)[C@H](F)C[C@]1(C[C@H]2C(=O)N[C@]4(C(=O)NS(=O)(=O)C5(C)CC5)C[C@H]4/C=C\CCCCC[C@H](NC(=O)OCC(C)(C)F)C(=O)N2C1)O3 [Example 370, 2-fluoro-2-methylpropyl [(1′R,2S,6S,12Z,13aS,14aR,16aS)-1′-fluoro-9′-methoxy-5′-methyl-14a-{[(1-methylcyclopropyl)sulfonyl]carbamoyl}-5,16-dioxo-1,1′,2′,5,6,7,8,9,10,11,13a,14,14a,15,16,16a-hexadecahydrospiro[cyclopropa[e]pyrrolo[1,2-a][1,4]diazacyclopentadecine-2,3′-pyrano[2,3-c]quinolin]-6-yl]carbamate] | 0.037 | 0.009 | 0.149 | 8.56 | – | – | – | –
COc1ccc2nc(C(F)(F)F)c3c(c2c1)[C@H](F)C[C@]1(C[C@H]2C(=O)N[C@]4(C(=O)NS(=O)(=O)C5(C)CC5)C[C@H]4/C=C\CCCCC[C@H](NC(=O)OCC(C)C)C(=O)N2C1)O3 [Example 461, 2-methylpropyl [(1′R,2S,6S,12Z,13aS,14aR,16aS)-1′-fluoro-9′-methoxy-14a-{[(1-methylcyclopropyl)sulfonyl]carbamoyl}-5,16-dioxo-5′-(trifluoromethyl)-1,1′,2′,5,6,7,8,9,10,11,13a,14,14a,15,16,16a-hexadecahydrospiro[cyclopropa[e]pyrrolo[1,2-a][1,4]diazacyclopentadecine-2,3′-pyrano[2,3-c]quinolin]-6-yl]carbamate] | – | – | 0.624 | – | 0.435 | 0.029 | 3.29 | –
Cc1nc2cc(F)c(F)cc2c2c1O[C@]1(CC2)C[C@H]2C(=O)N[C@]3(C(=O)NS(=O)(=O)C4(C)CC4)C[C@H]3/C=C\CCCCC[C@H](NC(=O)OC(C)C)C(=O)N2C1 [Example 194, propan-2-yl [(2R,6S,12Z,13aS,14aR,16aS)-8′,9′-difluoro-5′-methyl-14a-{[(1-methylcyclopropyl)sulfonyl]carbamoyl}-5,16-dioxo-1,1′,2′,5,6,7,8,9,10,11,13a,14,14a,15,16,16a-hexadecahydrospiro[cyclopropa[e]pyrrolo[1,2-a][1,4]diazacyclopentadecine-2,3′-pyrano[2,3-c]quinolin]-6-yl]carbamate] | – | – | 0.994 | – | – | – | – | IC50 ([1]; NS3/4A gt-1b A156T mutant, enzyme 0.4 nM, K+ salt): 0.0541 nM; IC50 ([2]; IC50 [gt-1b] (nM), NS3/4A genotype 1b, enzyme 0.2 nM, K+ salt): 0.007 nM; EC50 ([4]; genotype 1b replicon, K+ salt): 8.28 nM
CC1(S(=O)(=O)NC(=O)[C@@]23C[C@H]2/C=C\CCCCC[C@H](NC(=O)OC2C[C@@H]4C[C@@H]4C2)C(=O)N2C[C@@]4(CCc5c(c(C(F)(F)F)nc6ccc(OCF)cc56)O4)C[C@H]2C(=O)N3)CC1 (stereo partly drawn) [Example 501, (1R,5S)-bicyclo[3.1.0]hex-3-yl [(2R,6S,12Z,13aS,14aR,16aS)-9′-(fluoromethoxy)-14a-{[(1-methylcyclopropyl)sulfonyl]carbamoyl}-5,16-dioxo-5′-(trifluoromethyl)-1,1′,2′,5,6,7,8,9,10,11,13a,14,14a,15,16,16a-hexadecahydrospiro[cyclopropa[e]pyrrolo[1,2-a][1,4]diazacyclopentadecine-2,3′-pyrano[2,3-c]quinolin]-6-yl]carbamate] | 0.6 | 0.004 | 0.206 | 3.7 | – | – | – | –
CC(C)COC(=O)N[C@H]1CCCCC/C=C\[C@@H]2C[C@@]2(C(=O)NS(=O)(=O)C2(C)CC2)NC(=O)[C@@H]2C[C@]3(CCc4c(c(C(F)(F)F)nc5ccc(OCCCN6CCOCC6)cc45)O3)CN2C1=O [Example 511, 2-methylpropyl [(2R,6S,12Z,13aS,14aR,16aS)-14a-{[(1-methylcyclopropyl)sulfonyl]carbamoyl}-9′-[3-(morpholin-4-yl)propoxy]-5,16-dioxo-5′-(trifluoromethyl)-1,1′,2′,5,6,7,8,9,10,11,13a,14,14a,15,16,16a-hexadecahydrospiro[cyclopropa[e]pyrrolo[1,2-a][1,4]diazacyclopentadecine-2,3′-pyrano[2,3-c]quinolin]-6-yl]carbamate] | – | – | 0.258 | – | 0.235 | 0.008 | 0.782 | –
CC(C)(C)COC(=O)N[C@H]1CCCCC/C=C\[C@@H]2C[C@@]2(C(=O)NS(=O)(=O)C2(C)CC2)NC(=O)[C@@H]2C[C@]3(CCc4c(c(C(F)F)nc5ccc(Cl)cc45)O3)CN2C1=O [Example 369, 2,2-dimethylpropyl [(2R,6S,12Z,13aS,14aR,16aS)-9′-chloro-5′-(difluoromethyl)-14a-{[(1-methylcyclopropyl)sulfonyl]carbamoyl}-5,16-dioxo-1,1′,2′,5,6,7,8,9,10,11,13a,14,14a,15,16,16a-hexadecahydrospiro[cyclopropa[e]pyrrolo[1,2-a][1,4]diazacyclopentadecine-2,3′-pyrano[2,3-c]quinolin]-6-yl]carbamate] | – | – | 1.18 | – | 1.16 | 0.018 | 15.1 | –
CCc1nc2ccc(OC)cc2c2c1O[C@]1(CC2)C[C@H]2C(=O)N[C@]3(C(=O)NS(=O)(=O)C4(C)CC4)C[C@H]3/C=C\CCCCC[C@H](NC(=O)c3cn[nH]c3)C(=O)N2C1 [Example 482, (2R,6S,12Z,13aS,14aR,16aS)-5′-ethyl-9′-methoxy-N-[(1-methylcyclopropyl)sulfonyl]-5,16-dioxo-6-[(1H-pyrazol-4-ylcarbonyl)amino]-1,1′,2′,6,7,8,9,10,11,13a,14,15,16,16a-tetradecahydrospiro[cyclopropa[e]pyrrolo[1,2-a][1,4]diazacyclopentadecine-2,3′-pyrano[2,3-c]quinoline]-14a(5H)-carboxamide] | – | – | 0.418 | – | 0.101 | 0.008 | 68.6 | –
COc1ccc2nc(C)c3c(c2c1)CC[C@]1(C[C@H]2C(=O)N[C@]4(C(=O)NS(=O)(=O)C5(C)CC5)C[C@H]4/C=C\CCCCC[C@H](NC(=O)OC4(C)COC4)C(=O)N2C1)O3 [Example 198, 3-methyloxetan-3-yl [(2R,6S,12Z,13aS,14aR,16aS)-9′-methoxy-5′-methyl-14a-{[(1-methylcyclopropyl)sulfonyl]carbamoyl}-5,16-dioxo-1,1′,2′,5,6,7,8,9,10,11,13a,14,14a,15,16,16a-hexadecahydrospiro[cyclopropa[e]pyrrolo[1,2-a][1,4]diazacyclopentadecine-2,3′-pyrano[2,3-c]quinolin]-6-yl]carbamate] | – | – | 0.561 | – | – | – | – | IC50 ([1]; NS3/4A gt-1b A156T mutant, enzyme 0.4 nM): 0.104 nM; IC50 ([2]; IC50 [gt-1b] (nM), NS3/4A genotype 1b, enzyme 0.2 nM): 0.006 nM; EC50 ([4]; genotype 1b replicon): 9.19 nM

From patent US8987195B2 (priority 2012, dated 2015)
